Numbers after ± are expanded uncertainties.

The record followed here is the NIST ThermoML archive (doi:10.1016/j.jct.2019.06.009).

Data set [1] in a line: Molar enthalpy of transition or fusion. The conditions noted are these: Crystal; DSC.
For data set [2] the following is noted: Crystal; DSC.

Regarding `C=NCC#N` [methyleneaminoacetonitrile], the “Molar enthalpy of transition or fusion” value in data set [1] is 2.53 ± 0.239 kcal/mol. Further, the Triple point temperature in data set [2] is 400.19 ± 2.1 K.
